According to US20110104179A1 (priority 2009, published 2011):
Where “and” joins values, the source holds several entries; their conditions need not be identical. Equal values may be shown once. Read-outs that look alike come from different tables or passages of the source. Ends that are not written are not given here.

Tests used:
RgpB = RgpB (Porphyromonas gingivalis, UniProt P95493); settings: comparison value, cited from earlier work
[1] = test system: Arginine-gingipains (P. gingivalis W50 whole cell proteases); format: cell-based, Porphyromonas gingivalis W50
[2] = target: Lysine-gingipains (P. gingivalis ATCC 33277 whole cell proteases) (Porphyromonas gingivalis, UniProt B2RLK2); format: cell-based, Porphyromonas gingivalis ATCC 33277; settings: for Activity with ATCC33277, Lys-gingipains: peptide alone 100 μM, activity ± standard deviation
[3] = test system: Arginine-gingipains (P. gingivalis ATCC 33277 whole cell proteases); format: cell-based, Porphyromonas gingivalis ATCC 33277
[4] = 200 μM peptide concentration (FIG. 2, Table 2)

Molecule | Ki (RgpB; read-out: RgpB Ki) | IC50 (RgpB; read-out: IC50 against RgpB) | Protease activity (%) of the Arginine-gingipains, W50 Whole Cell Proteases [1] | Protease activity (%) of the Lysine-gingipains, ATCC 33277 Whole Cell Proteases ([2]; 100 μM peptide) | Protease activity (%) of the Lysine-gingipains, ATCC 33277 Whole Cell Proteases ([2]; 200 μM peptide) | inhibition of whole cell Lys-specific proteolytic activity [2, 4] | Protease activity (%) of the Lysine-gingipains, ATCC 33277 Whole Cell Proteases ([2]; 300 μM peptide) | inhibition of whole cell Lys-specific proteolytic activity ([2]; concentration not given) | Activity with ATCC33277, Lys-gingipains [2] | Activity with ATCC33277, Arg-gingipains [3] | Protease activity (%) of the Arginine-gingipains, ATCC 33277 Whole Cell Proteases [3] | inhibition of whole cell Arg-specific proteolytic activity [3]
[H]/N=C(\N/C(=N/[H])NCCCCCCNC(=N)NC(=N)Nc1ccc(Cl)cc1)Nc1ccc(Cl)cc1 [chlorhexidine] | 262 µM |  |  |  |  |  |  |  |  |  |  | 
C[C@H]1c2cccc(O)c2C(=O)C2=C(O)[C@]3(O)C(=O)C(C(N)=O)=C(O)[C@@H](N(C)C)[C@@H]3[C@@H](O)[C@@H]21 [doxycycline] |  | 3 µM |  |  |  |  |  |  |  |  |  | 
LPQEVLNENLLRF [αS1-casein(11-23)] |  |  | 22% | 64% | 43% | ~60% | 34% | ~60% | 2.73 ± 0.60 | 18.00 ± 3.53 | 38% and 39% and 62% | ~70% and 40% and ~60%
YQEPVLGPVRGPF [β-casein(193-205)] |  |  |  |  |  |  |  | not as potent |  |  |  | 
YQEPVLGPVRGPFPIIV [β-casein(193-209)] |  |  | 46% | 71% | 59% | 50% | 49% | 40-50% | 3.03 ± 1.20 | 20.03 ± 2.51 | 50% and 69% | 50% and 30% and 40-50%
